Source: patent EP0373994A1, “Mutants of simian transforming growth factor-beta 1” (ONCOGEN LIMITED PARTNERSHIP, priority 1988, dated 1990)
Read-outs that look alike come from different tables or passages of the source. Blank lines part the entries; values can stand above or below the molecule they belong to.

Tests used:
[1] = tested on: TGF-β1 secretion by CHO cell line TGF-β3-2000 clone 17; experiment: Secretion of TGF-β1 by transfected CHO cells treated with glycosylation inhibitors (pulse-chase, densitometry); format: cell-based, Chinese hamster
[2] = tested on: proteolytic processing of TGF-β1 precursor in TGF-β3-2000 clone 17 CHO cells; experiment: Proteolytic processing of TGF-β1 precursor in CHO cells treated with weak bases or ionophore; format: cell-based, Chinese hamster
[3] = target: T1, CHO cells overexpressing the human IGF-II/man6P receptor (Homo sapiens, UniProt P11717); experiment: Binding to CHO cells overexpressing the receptor
T1 construct: expressed in transfected cells; host or cells: CHO cells
Method: Binding and internalization studies with transfected and control CHO cells were performed in 24-well culture plates. Confluent cells were washed and incubated for 5 hours at 4°C with the labeled ligand in 0.3 ml of binding buffer (100 mM Hepes, pH 7.6, 120 mM NaCl, 1.2 mM MgSO₄, 15 mM sodium acetate, 5 mM glucose). Cells were then washed twice, lysed with 0.1% sodium docecyl sulfate and counted. For the internalization studies, labeled ligand was added to the cells in serum-free Ham's F-12 medium containing 0.1% bovine serum albumin and 20 mM Hepes, pH 7.6. After the indicated periods of time at 37°C, the cells were put on ice and washed with pre-cooled Hepes buffered saline containing 0.3 mM CaCl₂. […] The cells were then washed, solubilized, and counted as above.

[4] = target: human mannose 6-phosphate/IGF-II receptor (Homo sapiens, UniProt P11717); experiment: Solid phase receptor assay, binding of 125I-TGF-β1 precursor to purified receptor
[5] = target: T2, IGF-II/man6P receptor on adipocytes (Rattus norvegicus, UniProt G3V824); experiment: Binding to rat adipocytes with or without insulin pretreatment; details: 3mM, read-out: inhibition of TGF-β1 precursor binding
T2 construct: from tissue; host or cells: primary adipocytes from epididymal fat pads of male Sprague-Dawley rats
Method: The epididymal fat pads from male Sprague-Dawley rats (180-220 g) were excised, minced, and collagenase-digested as described (Rodberg, 1964, J. Biol. Chem. 239:375-380). The isolated adipocytes were pre-incubated with or without 1 µM insulin for 10 min at 37°C in 0.7 ml Krebs-Ringer buffer (107 mM NaCl, 5mM KCl, 3mM CaCl₂, 1mM MgSO₄, 7 mM NaHCO₃, 10 mM glucose, and 20 mM Hepes, pH 7.8) with 3% bovine serum albumin. The indicated labeled ligand was added and the incubations continued for 45 minutes at 37°. The cells were separated from the media by centrifugation through silicon oil and the radioactivity in the cell layer counted.

T1 sequence (P11717 41-2491): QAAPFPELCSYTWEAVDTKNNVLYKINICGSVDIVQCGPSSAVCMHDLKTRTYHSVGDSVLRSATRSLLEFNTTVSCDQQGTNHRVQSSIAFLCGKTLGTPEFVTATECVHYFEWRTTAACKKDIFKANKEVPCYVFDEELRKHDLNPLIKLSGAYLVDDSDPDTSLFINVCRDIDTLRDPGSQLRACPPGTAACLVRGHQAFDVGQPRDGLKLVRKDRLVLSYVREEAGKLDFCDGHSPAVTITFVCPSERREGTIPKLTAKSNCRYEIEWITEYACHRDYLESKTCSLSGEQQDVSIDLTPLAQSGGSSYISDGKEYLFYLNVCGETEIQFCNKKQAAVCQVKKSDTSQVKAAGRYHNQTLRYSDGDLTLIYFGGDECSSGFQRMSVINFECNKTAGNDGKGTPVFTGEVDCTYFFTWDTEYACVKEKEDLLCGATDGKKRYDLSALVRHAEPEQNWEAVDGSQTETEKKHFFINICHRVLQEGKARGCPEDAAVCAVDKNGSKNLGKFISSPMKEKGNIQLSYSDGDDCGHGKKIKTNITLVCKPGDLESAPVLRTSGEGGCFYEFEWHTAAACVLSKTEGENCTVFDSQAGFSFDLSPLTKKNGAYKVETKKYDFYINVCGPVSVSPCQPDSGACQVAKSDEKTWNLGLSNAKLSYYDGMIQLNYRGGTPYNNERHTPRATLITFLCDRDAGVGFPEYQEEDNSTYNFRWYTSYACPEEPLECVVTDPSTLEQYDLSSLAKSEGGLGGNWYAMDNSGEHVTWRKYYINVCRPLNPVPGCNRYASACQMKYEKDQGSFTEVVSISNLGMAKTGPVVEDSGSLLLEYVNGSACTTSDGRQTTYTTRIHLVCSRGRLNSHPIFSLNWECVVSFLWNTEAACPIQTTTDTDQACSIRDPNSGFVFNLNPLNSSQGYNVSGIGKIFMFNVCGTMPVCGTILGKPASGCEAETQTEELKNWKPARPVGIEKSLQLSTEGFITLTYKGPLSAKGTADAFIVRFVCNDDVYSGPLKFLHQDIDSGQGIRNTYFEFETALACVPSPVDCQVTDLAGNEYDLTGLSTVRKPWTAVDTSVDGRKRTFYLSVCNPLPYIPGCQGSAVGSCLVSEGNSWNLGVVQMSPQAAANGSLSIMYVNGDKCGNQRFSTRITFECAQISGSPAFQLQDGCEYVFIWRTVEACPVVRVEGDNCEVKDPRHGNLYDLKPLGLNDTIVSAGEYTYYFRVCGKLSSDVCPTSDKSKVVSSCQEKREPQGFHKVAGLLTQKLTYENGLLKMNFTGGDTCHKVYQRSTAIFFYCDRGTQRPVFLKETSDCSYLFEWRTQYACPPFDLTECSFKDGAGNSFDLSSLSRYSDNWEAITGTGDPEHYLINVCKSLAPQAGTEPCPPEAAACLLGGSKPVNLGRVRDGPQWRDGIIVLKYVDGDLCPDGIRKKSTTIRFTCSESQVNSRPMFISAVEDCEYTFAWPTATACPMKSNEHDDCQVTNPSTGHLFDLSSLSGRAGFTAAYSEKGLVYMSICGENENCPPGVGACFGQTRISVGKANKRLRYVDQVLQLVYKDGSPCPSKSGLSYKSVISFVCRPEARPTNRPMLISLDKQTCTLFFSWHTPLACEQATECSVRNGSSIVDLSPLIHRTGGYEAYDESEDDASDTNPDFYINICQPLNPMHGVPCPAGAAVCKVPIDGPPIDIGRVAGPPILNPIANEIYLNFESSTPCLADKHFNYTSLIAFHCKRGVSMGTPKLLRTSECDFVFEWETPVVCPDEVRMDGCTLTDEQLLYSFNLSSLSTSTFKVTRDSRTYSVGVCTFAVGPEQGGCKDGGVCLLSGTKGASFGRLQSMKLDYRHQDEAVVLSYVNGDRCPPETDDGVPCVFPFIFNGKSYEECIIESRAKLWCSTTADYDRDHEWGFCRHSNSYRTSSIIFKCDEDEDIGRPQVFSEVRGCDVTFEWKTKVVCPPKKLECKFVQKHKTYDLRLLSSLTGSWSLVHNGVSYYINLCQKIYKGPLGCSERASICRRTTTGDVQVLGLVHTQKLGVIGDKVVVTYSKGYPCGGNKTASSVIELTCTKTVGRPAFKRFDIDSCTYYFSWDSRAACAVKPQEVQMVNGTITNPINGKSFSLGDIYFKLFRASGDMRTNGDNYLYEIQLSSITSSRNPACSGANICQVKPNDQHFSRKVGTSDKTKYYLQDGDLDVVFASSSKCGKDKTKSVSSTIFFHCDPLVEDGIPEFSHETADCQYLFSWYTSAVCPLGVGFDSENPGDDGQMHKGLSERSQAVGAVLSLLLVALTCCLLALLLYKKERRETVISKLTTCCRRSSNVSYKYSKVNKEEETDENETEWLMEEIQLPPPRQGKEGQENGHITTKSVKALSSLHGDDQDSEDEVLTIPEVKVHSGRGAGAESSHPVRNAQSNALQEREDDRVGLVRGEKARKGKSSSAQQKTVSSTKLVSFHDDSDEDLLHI
human mannose 6-phosphate/IGF-II receptor, sequence (P11717 41-2491): as above
T2 sequence (G3V824 36-2481): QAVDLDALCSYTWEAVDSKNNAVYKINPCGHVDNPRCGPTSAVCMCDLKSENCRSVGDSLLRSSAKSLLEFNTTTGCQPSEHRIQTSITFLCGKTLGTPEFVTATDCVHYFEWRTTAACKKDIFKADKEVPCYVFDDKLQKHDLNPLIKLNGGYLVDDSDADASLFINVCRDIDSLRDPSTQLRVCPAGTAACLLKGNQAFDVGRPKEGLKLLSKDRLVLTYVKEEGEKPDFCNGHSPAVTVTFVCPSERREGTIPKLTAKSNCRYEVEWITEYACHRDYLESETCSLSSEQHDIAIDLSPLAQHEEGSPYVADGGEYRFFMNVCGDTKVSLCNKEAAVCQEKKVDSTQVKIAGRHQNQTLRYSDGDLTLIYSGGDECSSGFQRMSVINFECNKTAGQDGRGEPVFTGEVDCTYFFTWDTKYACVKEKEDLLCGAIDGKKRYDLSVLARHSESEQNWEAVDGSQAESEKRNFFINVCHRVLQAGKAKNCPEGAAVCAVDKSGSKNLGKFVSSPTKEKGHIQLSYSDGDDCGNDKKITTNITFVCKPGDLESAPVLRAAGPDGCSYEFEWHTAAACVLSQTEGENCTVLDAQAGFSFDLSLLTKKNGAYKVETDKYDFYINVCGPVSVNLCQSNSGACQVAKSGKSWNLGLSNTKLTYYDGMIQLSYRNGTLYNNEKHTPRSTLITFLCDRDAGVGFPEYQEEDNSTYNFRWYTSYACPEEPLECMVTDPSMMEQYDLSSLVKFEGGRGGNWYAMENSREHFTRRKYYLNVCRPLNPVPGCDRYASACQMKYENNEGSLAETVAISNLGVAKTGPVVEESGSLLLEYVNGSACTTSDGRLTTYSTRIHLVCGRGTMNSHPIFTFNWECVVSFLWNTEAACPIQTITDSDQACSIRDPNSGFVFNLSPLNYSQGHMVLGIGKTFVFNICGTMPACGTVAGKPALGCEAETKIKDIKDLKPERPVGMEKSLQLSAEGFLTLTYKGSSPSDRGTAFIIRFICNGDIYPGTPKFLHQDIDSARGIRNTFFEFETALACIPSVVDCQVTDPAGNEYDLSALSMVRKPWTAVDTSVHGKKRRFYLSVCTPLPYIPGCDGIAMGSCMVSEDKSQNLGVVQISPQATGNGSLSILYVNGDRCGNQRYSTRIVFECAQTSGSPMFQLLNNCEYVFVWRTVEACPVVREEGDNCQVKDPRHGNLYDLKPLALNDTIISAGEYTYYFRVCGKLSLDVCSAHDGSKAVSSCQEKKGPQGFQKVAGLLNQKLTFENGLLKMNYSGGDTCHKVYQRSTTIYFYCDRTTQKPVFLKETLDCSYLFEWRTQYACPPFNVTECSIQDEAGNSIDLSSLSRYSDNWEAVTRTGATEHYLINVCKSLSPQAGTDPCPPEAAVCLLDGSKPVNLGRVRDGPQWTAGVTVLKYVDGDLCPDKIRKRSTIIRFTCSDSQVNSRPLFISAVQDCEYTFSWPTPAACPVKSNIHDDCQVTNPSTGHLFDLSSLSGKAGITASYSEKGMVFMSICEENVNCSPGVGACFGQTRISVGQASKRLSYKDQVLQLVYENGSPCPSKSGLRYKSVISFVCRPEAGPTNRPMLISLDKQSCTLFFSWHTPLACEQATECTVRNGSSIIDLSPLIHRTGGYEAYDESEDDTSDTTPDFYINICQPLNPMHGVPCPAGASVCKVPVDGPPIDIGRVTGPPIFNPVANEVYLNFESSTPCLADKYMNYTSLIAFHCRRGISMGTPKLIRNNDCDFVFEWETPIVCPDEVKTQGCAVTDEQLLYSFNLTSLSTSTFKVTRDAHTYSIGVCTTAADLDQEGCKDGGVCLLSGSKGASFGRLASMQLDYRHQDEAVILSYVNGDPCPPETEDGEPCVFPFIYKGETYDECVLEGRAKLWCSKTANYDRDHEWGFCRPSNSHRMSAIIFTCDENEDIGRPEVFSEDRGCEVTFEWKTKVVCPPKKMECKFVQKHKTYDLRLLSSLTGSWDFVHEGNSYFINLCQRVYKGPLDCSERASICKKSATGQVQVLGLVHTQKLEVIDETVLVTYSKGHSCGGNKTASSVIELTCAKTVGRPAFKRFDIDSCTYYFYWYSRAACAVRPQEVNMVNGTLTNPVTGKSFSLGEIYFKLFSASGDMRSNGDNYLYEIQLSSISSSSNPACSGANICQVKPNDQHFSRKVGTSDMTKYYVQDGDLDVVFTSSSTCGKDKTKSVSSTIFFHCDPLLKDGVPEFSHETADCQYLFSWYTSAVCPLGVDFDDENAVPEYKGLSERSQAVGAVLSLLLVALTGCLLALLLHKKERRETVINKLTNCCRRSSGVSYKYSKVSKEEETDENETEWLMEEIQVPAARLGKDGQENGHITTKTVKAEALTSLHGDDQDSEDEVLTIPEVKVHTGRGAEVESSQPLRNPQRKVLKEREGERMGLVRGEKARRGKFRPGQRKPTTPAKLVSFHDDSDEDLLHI

Molecule: O[C@H]1[C@H](O)[C@@H](O)CN2CC[C@H](O)[C@H]12 [CA, castanospermine]
activity at 520 µM ([1]; Cricetulus griseus, CHO, 6 h, read-out: level of secretion relative to control cells): 5 to 15%

Molecule: CCN(CC)CCCC(C)Nc1ccnc2cc(Cl)ccc12 (stereo not drawn) [Chloroquine, Chloroquine diphosphate]
activity at 200 µM ([2]; Cricetulus griseus, CHO, 6 h chase, 10mM ammonium chloride, 200 µM chloroquine, 1 µM monensin, read-out: cleavage efficiency (proteolytic processing) relative to control values): ~20%

Molecule: O=P(O)(O)OC1O[C@H](CO)[C@@H](O)[C@H](O)[C@@H]1O (stereo partly drawn) [Mannose 1-phosphate, mannose 1-phosphate]
times less effective than man6P at inhibiting binding of the TGF-β1 precursor ([3]; FIG. 37A): at least 1,000 times

Molecule: O[C@H]1[C@H]2[C@H](O)CCCN2C[C@H]1O [SW, swainsonine]
activation at 230 µM ([1]; Cricetulus griseus, CHO, 6 h, read-out: increase in levels of secreted recombinant proteins): ~30%

Molecule: OC[C@H]1NC[C@@H](O)[C@@H](O)[C@@H]1O [dMM, 1-deoxymannojirimycin]
activation at 4000 µM ([1]; Cricetulus griseus, CHO, 6 h chase, 0.23 mM SW, 4 mM dMM, read-out: increase in levels of secreted recombinant proteins): ~30%

Molecule: OC[C@H]1NC[C@H](O)[C@@H](O)[C@@H]1O [dN, 1-deoxynojirimycin]
activity at 4000 µM ([1]; Cricetulus griseus, CHO, 6 h chase, 6 µM TU, 0.52 mM CA, 4 mM dN, read-out: level of secretion relative to control cells): 5 to 15%

IC50 ([3]; FIG. 37A, read-out: half-maximal inhibition of TGF-β1 precursor binding to transfected CHO cells): 10 µM
IC50 ([3]; read-out: half-maximal inhibition of rTGF-β1 precursor binding to transfected CHO cells): 10 µM
inhibition at 50 µM ([4]; 50µM competitor, read-out: inhibition of 125I-labeled TGF-β1 precursor binding to purified receptor): 90%
IC50 ([4]; read-out: half-maximal inhibition of binding to the isolated receptor): 8 µM
inhibition at 3000 µM ([5]; control adipocytes): 65%
inhibition at 3000 µM ([5]; insulin-treated adipocytes): 81%
Molecule: O=P(O)(O)OC[C@H]1OC(O)[C@@H](O)[C@@H](O)[C@@H]1O (stereo partly drawn) [mannose 6-phosphate]

Molecule: CC[C@@]1([C@@H]2O[C@@H]([C@H]3O[C@@](O)(CO)[C@H](C)C[C@@H]3C)C[C@@H]2C)CC[C@H]([C@]2(C)CC[C@]3(C[C@H](O)[C@@H](C)[C@@H]([C@@H](C)[C@@H](OC)[C@H](C)C(=O)O)O3)O2)O1 [monensin]
cleavage efficiency (proteolytic processing) relative to control values [2]: ~20%

Molecule: ammonium chloride
cleavage efficiency (proteolytic processing) relative to control values ([2]; 6 h chase, 10mM ammonium chloride, 200 µM chloroquine, 1 µM monensin): about 70%

Molecule: tunicamycin
level of secretion relative to control cells ([1]; 6 h chase, 6 µM TU, 0.52 mM CA, 4 mM dN): 5-15%
